# Target: CDK2/Cyclin E1 (Homo sapiens, UniProt P24941)
# Assay: CDK2/Cyclin E1 Caliper LabChip EZ Reader mobility shift assay
# Type: biochemical
# Design: purchased Eurofins 14-475
# Conditions: read-out: Caliper Assay (CDK2/CCNE1): IC50
# In short: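 Substrate-to-product conversion of fluorescent peptide (1.5 μM final) read by capillary electrophoresis after 100 min reaction, EDTA-quenched. Enzyme (2.5 nM final) and ATP (100 μM final) were preincubated 30 min with inhibitor dilutions first. % activity vs concentration fitted four-parameter for IC50.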
row,Structure (SMILES),IC50 [nM]
1,C[C@@H](OCC12CCC(CC1)OC2)[C@H](NC(=O)[C@@H]1CN(C(=O)c2cncs2)CC12CN(C(=O)[C@H]1CC1(C)C)C2)C(=O)N1CCCC2(COC2)C1 [I-453],≤ 10
2,CC1(C)C[C@@H]1C(=O)N1CC2(CN(C(=O)c3cnn(Cc4ccccc4)c3)C[C@H]2C(=O)Nc2ccc(Cc3ccccc3)cc2)C1 [I-84A],1000 to 10000
3,C[C@@H](OCC1CCCCC1)[C@H](NC(=O)[C@@H]1CN(C(=O)c2cnn(Cc3ccccc3)c2)CC12CN(C(=O)[C@H]1CC1(C)C)C2)C(=O)N1CC2(CNC2)C1 [I-240],≤ 10
4,COC[C@H]1CCCN(C(=O)CNC(=O)[C@@H]2CN(C(=O)c3cncs3)CC23CN(C(=O)[C@H]2CC2(C)C)C3)C1 [I-323],1000 to 10000
5,CC1(C)C[C@@H]1C(=O)N1CC2(CN(C(=O)c3cnn(Cc4ccccc4)c3)C[C@@H]2C(=O)Nc2ccc(Cc3ccccc3)nc2)C1 [I-168],1000 to 10000
6,CNC(=O)[C@@H](NC(=O)[C@@H]1CN(C(=O)c2cnn(Cc3ccccc3)c2)CC12CN(C(=O)c1ccccc1)C2)[C@@H](C)OCc1ccccc1 [I-26A],1000 to 10000
7,C[C@@H](OCC1CCC(F)(F)CC1)[C@H](NC(=O)[C@@H]1CN(C(=O)c2cn[nH]c2)CC12CN(C(=O)[C@H]1CC1(C)C)C2)C(=O)N1CCC(F)(F)CC1 [I-228A],≤ 10
8,CC1(C)C[C@@H]1C(=O)N1CC2(CN(C(=O)c3cnn(Cc4ccccc4)c3)C[C@H]2C(=O)N[C@@H]2CCN(C3CC3)C2=O)C1 [I-259],> 10000
9,CN(C(=O)[C@@H]1CCCN(C(=O)[C@@H]2CN(C(=O)c3cnn(Cc4ccccc4)c3)CC23CN(C(=O)[C@H]2CC2(C)C)C3)C1)C1CCCCC1 [I-181],1000 to 10000
10,CNC(=O)[C@@H](NC(=O)[C@@H]1CN(C(=O)c2cnn(Cc3ccccc3)c2)CC12CN(C(=O)[C@H]1CC1(C)C)C2)[C@@H](C)OCc1ccncc1 [I-244],1000 to 10000
11,CNC(=O)[C@@H](NC(=O)[C@H]1CN(C(=O)c2nccs2)CC12CN(C(=O)[C@H]1CC1(C)C)C2)[C@@H](C)OCC1CCCCC1 [I-146],> 10000
12,C[C@@H](OCC1CCC(F)(F)CC1)[C@H](NC(=O)[C@H]1CN(C(=O)c2cnn(Cc3ccc(F)cc3)c2)CC12CN(C(=O)[C@H]1CC1(C)C)C2)C(=O)N1CCC(F)(F)CC1 [I-164B],10 to 100
13,C[C@@H](OCc1ccccc1)[C@H](NC(=O)C1CN(C(=O)c2cnn(Cc3ccccc3)c2)CC12CN(C(=O)[C@H]1CC1(C)C)C2)C(=O)N1CCCC(CO)C1 (stereo partly drawn) [I-98],10 to 100
14,"CNC(=O)[C@@H](NC(=O)[C@@H]1CN(C(=O)c2cnn(Cc3ccccc3)c2)CC12CN(C(=O)[C@H]1CC1(C)C)C2)[C@@H](C)O [I-88A, (S)-6-(1-benzyl-1H-pyrazole-4-carbonyl)-2-((S)-2,2-dimethylcyclopropane-1-carbonyl)-N-((2S,3R)-3-hydroxy-1-(methylamino)-1-oxobutan-2-yl)-2,6-diazaspiro[3.4]octane-8-carboxamide]",> 10000
15,"COC[C@H]1CCCN(C(=O)[C@@H](NC(=O)[C@@H]2CN(C(=O)c3cncs3)CC23CN(S(=O)(=O)C(C)(C)C)C3)[C@@H](C)OCC2CCCCC2)C1 [I-447, (S)-2-(tert-butylsulfonyl)-N-((2S,3R)-3-(cyclohexylmethoxy)-1-((S)-3-(methoxymethyl)piperidin-1-yl)-1-oxobutan-2-yl)-6-(thiazole-5-carbonyl)-2,6-diazaspiro[3.4]octane-8-carboxamide]",100 to 1000
16,CNC(=O)[C@@H](NC(=O)[C@H]1CN(C(=O)c2cnn(Cc3ccccc3)c2)CC12CN(C(=O)CC(C)C)C2)[C@@H](C)OCc1ccccc1 [I-69B],> 10000
17,CNC(=O)[C@@H](NC(=O)[C@@H]1CN(C(=O)c2cnn(CC3CCOCC3)c2)CC12CN(C(=O)[C@H]1CC1(C)C)C2)[C@@H](C)OCc1ccccc1 [I-95A],100 to 1000
18,Cc1ccc2[nH]c(CNC(=O)C3CN(C(=O)c4cnn(Cc5ccccc5)c4)CC34CN(C(=O)[C@H]3CC3(C)C)C4)nc2c1 (stereo partly drawn) [I-278],1000 to 10000
19,CNC(=O)[C@@H](NC(=O)[C@@H]1CN(C(=O)c2cnn(Cc3ccccc3)c2)CC12CN(C(=O)CC(F)(F)F)C2)[C@@H](C)OCc1ccccc1 [I-87A],100 to 1000
20,C[C@@H](OCC12CCC(CC1)OC2)[C@H](NC(=O)[C@@H]1CN(C(=O)c2cncs2)CC12CN(C(=O)C(C)(C)C1CC1)C2)C(C)(C)O [I-334],100 to 1000
21,Cc1ccc(CNC(=O)[C@@H]2CN(C(=O)c3cnn(Cc4ccncc4)c3)CC23CN(C(=O)[C@H]2CC2(C)C)C3)nn1 [I-418],> 10000
22,CC1(C)C[C@@H]1C(=O)N1CC2(CN(C(=O)c3cnn(Cc4ccccc4)c3)C[C@@H]2C(=O)NC2CCN(C(=O)c3ccccc3)CC2)C1 [I-61B],> 10000
23,"C[C@@H](OCC1CCOCC1)[C@@H](COC1CCC(F)(F)CC1)NC(=O)[C@@H]1CN(C(=O)c2cncs2)CC12CN(C(=O)C(C)(C)C1CC1)C2 [I-333, (S)-2-(2-cyclopropyl-2-methylpropanoyl)-N-((2R,3R)-1-((4,4-difluorocyclohexyl)oxy)-3-((tetrahydro-2H-pyran-4-yl)methoxy)butan-2-yl)-6-(thiazole-5-carbonyl)-2,6-diazaspiro[3.4]octane-8-carboxamide]",10 to 100
24,COCCNC(=O)[C@H]1CN(C(=O)c2cnn(Cc3ccccc3)c2)CC12CN(C(=O)[C@H]1CC1(C)C)C2 [I-122B],> 10000

row,Structure (SMILES),IC50 [nM]
1,CNC(=O)[C@@H](NC(=O)[C@H]1CN(C(=O)c2cnn(Cc3ccccc3)c2)CC12CN(C(=O)CC1(COC)CC1)C2)[C@@H](C)OCc1ccccc1 [I-82B],> 10000
2,CNC(=O)[C@@H](NC(=O)[C@@H]1CN(C(=O)c2cncs2)CC12CN(C(=O)[C@H]1CC1(C)C)C2)C1(OCC2CCCCC2)CC1 [I-401],10 to 100
3,C[C@@H](OCC12CCC(CC1)OC2)[C@H](NC(=O)[C@@H]1CN(C(=O)c2cncs2)CC12CN(C(=O)[C@H]1CC1(C)C)C2)C(=O)N1CCC2(CC1)COC2 [I-336],≤ 10
4,CC(O[C@H](C)[C@H](NC(=O)[C@@H]1CN(C(=O)c2cncs2)CC12CN(C(=O)[C@H]1CC1(C)C)C2)C(=O)N1CCC(F)(F)CC1)C1CCC(F)(F)CC1 (stereo partly drawn) [I-361],≤ 10
5,CNC(=O)[C@@H](NC(=O)[C@@H]1CN(C(=O)c2cnn(Cc3ccccc3)c2)CC12CN(C(=O)[C@H]1CC1(C)C)C2)[C@@H](C)OCc1ccc(Br)cc1 [I-263],≤ 10
6,CNC(=O)[C@@H](NC(=O)[C@H]1CN(Cc2cnc[nH]2)CC12CN(C(=O)[C@H]1CC1(C)C)C2)[C@@H](C)OCc1ccccc1 [I-77B],> 10000
7,[2H]C([2H])([2H])OC[C@H]1CCCN(C(=O)[C@@H](NC(=O)[C@@H]2CN(C(=O)c3cncs3)CC23CN(C(=O)C(C)(C)C2CC2)C3)[C@@H](C)OCC23CCC(CC2)OC3)C1 [I-459],10 to 100
8,CCCCC1CC1C(=O)N1CC2(CN(C(=O)c3cnn(Cc4ccccc4)c3)C[C@H]2C(=O)N[C@H](C(=O)NC)[C@@H](C)OCc2ccccc2)C1 (stereo partly drawn) [I-94A],> 10000
9,CNC(=O)[C@@H](NC(=O)[C@H]1CN(C(=O)c2cncs2)CC12CN(C(=O)C(C)(C)C)C2)[C@@H](C)OCC1CCCCC1 [I-186B],> 10000
10,"CNC(=O)[C@@H](NC(=O)[C@@H]1CN(C(=O)c2cnn(Cc3ccccc3)c2)CC12CN(C(=O)Cc1ccccc1)C2)[C@@H](C)OCc1ccccc1 [I-25A, (S)-6-(1-benzyl-1H-pyrazole-4-carbonyl)-N-((2S,3R)-3-(benzyloxy)-1-(methylamino)-1-oxobutan-2-yl)-2-(2-phenylacetyl)-2,6-diazaspiro[3.4]octane-8-carboxamide]",> 10000
11,CNC(=O)[C@@H](NC(=O)[C@H]1CN(C(=O)c2cnn(Cc3ccccc3)c2)CC12CN(C(=O)c1ccccc1)C2)[C@@H](C)OCc1ccccc1 [I-26B],> 10000
12,CNC(=O)[C@@H](NC(=O)[C@@H]1CN(Cc2ccncc2)CC12CN(C(=O)[C@H]1CC1(C)C)C2)[C@@H](C)OCc1ccccc1 [I-55A],> 10000
13,CNC(=O)[C@@H](NC(=O)[C@H]1CN(C(=O)c2cnc(COC)s2)CC12CN(C(=O)[C@H]1CC1(C)C)C2)[C@@H](C)OCC1CCCCC1 [I-145B],1000 to 10000
14,CNC(=O)[C@@H](NC(=O)[C@H]1CN(C(=O)c2cnn(CC3CCOCC3)c2)CC12CN(C(=O)[C@H]1CC1(C)C)C2)[C@@H](C)OCC1CCCCC1 [I-121B],1000 to 10000
15,CNC(=O)[C@@H](NC(=O)[C@@H]1CN(C(=O)c2cnn(Cc3ccccc3)c2)CC12CN(C(=O)[C@H]1CC1(C)C)C2)[C@@H](C)OCC1CCC1 [I-144A],10 to 100
16,CNC(=O)[C@@H](NC(=O)[C@@H]1CN(C(=O)c2cncs2)CC12CN(C(=O)[C@H]1CC1(C)C)C2)[C@@H](C)OC1C2CC3CC(C2)CC1C3 (stereo partly drawn) [I-463],10 to 100
17,C[C@@H](OCc1ccccc1)[C@H](NC(=O)C1CN(C(=O)c2cnn(Cc3ccccc3)c2)CC12CN(C(=O)[C@H]1CC1(C)C)C2)C(=O)NCCC(=O)O (stereo partly drawn) [I-29],100 to 1000
18,COC[C@H]1CCCN(C(=O)[C@@H](NC(=O)[C@@H]2CN(C(=O)c3cncs3)CC23CN(C(=O)C(C)(C)C2CC2)C3)[C@@H](C)OC(C)C2CCC(F)(F)CC2)C1 (stereo partly drawn) [I-399],≤ 10
19,CNC(=O)[C@@H](NC(=O)[C@H]1CN(C(=O)c2cnn(Cc3ccccc3)c2)CC12CN(C(=O)C1(C3CC3)CC1)C2)[C@@H](C)OCc1ccccc1 [I-114B],> 10000
20,CC1(C)C[C@@H]1C(=O)N1CC2(CN(C(=O)c3cncs3)C[C@H]2C(=O)NC(c2cccc(C3CCOCC3)n2)C2CCCO2)C1 (stereo partly drawn) [I-497],1000 to 10000
21,CNC(=O)C(NC(=O)[C@@H]1CN(C(=O)c2cncs2)CC12CN(C(=O)[C@H]1CC1(C)C)C2)c1nc(C2CCCCC2)co1 (stereo partly drawn) [I-425],100 to 1000
22,CNC(=O)[C@@H](NC(=O)[C@@H]1CN(C(=O)c2cnn(Cc3ccccc3)c2)CC12CN(C(=O)[C@H]1CC1(C)C)C2)[C@@H](C)OCC12CC(C(=O)OC)(C1)C2 [I-299],10 to 100
23,CC(=O)N1C[C@@H](C(=O)N[C@H](C(=O)N2CCCCC2)[C@@H](C)OCC2CCCCC2)C2(C1)CN(C(=O)[C@H]1CC1(C)C)C2 [I-118],> 10000
24,CNC(=O)[C@@H](NC(=O)[C@H]1CN(C(=O)c2cnn(Cc3ccccc3)c2)CC12CN(C(=O)C1(CC3CC3)CC1)C2)[C@@H](C)OCc1ccccc1 [I-116B],> 10000

# — patent publication US20240174680A1, “CDK2 INHIBITORS AND METHODS OF USING THE SAME” (Cedilla Therapeutics, Inc., priority 2021, published 2024)
